Measured values: ChEMBL document CHEMBL1146677, “Orally active anti-proliferation agents: novel diphenylamine derivatives as FGF-R2 autophosphorylation inhibitors” (Bioorg Med Chem Lett, 2004)
pIC50: −log10 of the molar value. Values after ≈ are worked out from the molar mass of the structure shown. Active and inactive are the calls of the source.

How the values were obtained:
[1] = biological target: T1, Fibroblast growth factor receptor 2 (Homo sapiens, UniProt P21802); experiment: In vitro inhibition against autophosphorylation of Fibroblast growth factor receptor 2 in the human scirrhous gastric carcinoma cell line
Target sequence in this assay (P21802 whole entry): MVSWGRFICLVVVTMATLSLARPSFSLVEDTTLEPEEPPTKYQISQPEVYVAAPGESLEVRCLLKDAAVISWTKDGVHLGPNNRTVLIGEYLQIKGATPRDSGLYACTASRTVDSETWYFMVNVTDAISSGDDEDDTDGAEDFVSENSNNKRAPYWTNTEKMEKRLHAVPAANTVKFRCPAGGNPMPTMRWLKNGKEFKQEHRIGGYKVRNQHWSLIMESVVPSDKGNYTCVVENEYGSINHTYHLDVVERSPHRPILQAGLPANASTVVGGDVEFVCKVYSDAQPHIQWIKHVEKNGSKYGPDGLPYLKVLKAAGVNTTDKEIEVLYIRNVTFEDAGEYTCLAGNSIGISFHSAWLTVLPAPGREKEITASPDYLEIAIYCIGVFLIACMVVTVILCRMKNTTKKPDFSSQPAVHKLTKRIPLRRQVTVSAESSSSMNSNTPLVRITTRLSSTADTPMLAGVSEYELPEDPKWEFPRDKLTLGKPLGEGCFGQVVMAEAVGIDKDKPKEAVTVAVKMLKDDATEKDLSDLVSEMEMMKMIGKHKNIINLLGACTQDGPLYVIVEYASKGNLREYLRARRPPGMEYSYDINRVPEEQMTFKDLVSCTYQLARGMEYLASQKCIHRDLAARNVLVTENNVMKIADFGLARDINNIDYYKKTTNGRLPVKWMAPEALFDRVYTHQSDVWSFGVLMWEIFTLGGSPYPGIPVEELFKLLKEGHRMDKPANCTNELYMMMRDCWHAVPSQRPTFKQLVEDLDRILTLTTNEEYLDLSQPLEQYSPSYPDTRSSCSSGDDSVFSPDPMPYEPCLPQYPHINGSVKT

Rattus norvegicus [2] = species on record: Rattus norvegicus; experiment: Percent remaining after incubation with rat liver microsomes for 10 min; format: functional
[3] = Solubility after at a pH 1.2; format: physicochemical; conditions: buffer, read-out: Activity
[4] = biological target: T1, Fibroblast growth factor receptor 2; experiment: Ex vivo inhibition of fibroblast growth factor receptor (FGF-R2) autophosphorylation 5 hr after the oral administration at 100 mg/kg; format: functional, organism-based; design: dose 100 mg/kg
Target sequence in this assay (P21802 22-821 limits assumed): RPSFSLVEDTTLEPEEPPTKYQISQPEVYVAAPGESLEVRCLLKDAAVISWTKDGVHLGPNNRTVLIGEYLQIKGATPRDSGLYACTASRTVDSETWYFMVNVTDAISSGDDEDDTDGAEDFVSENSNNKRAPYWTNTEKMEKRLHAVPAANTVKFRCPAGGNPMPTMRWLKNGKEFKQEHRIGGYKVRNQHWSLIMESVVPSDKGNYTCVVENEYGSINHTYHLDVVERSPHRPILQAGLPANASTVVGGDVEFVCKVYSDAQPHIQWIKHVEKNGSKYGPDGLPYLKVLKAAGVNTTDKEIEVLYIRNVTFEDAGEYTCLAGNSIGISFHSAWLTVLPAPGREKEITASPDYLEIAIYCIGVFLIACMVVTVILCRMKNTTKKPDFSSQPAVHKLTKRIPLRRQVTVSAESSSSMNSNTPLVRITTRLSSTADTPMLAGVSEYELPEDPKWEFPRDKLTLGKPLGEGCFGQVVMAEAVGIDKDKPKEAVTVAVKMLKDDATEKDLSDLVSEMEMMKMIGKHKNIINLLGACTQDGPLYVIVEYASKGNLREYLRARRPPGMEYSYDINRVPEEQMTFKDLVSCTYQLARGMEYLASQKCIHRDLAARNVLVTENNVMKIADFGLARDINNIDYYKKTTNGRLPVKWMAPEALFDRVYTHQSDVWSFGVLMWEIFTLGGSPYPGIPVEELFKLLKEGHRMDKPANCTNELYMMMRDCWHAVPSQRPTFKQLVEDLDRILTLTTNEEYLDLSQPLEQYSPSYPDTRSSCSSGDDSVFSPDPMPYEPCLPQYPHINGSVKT

Rattus norvegicus [5] = species on record: Rattus norvegicus; experiment: Percent remaining after incubation with rat liver microsomes for 40 min; format: functional
[6] = biological target: Mast/stem cell growth factor receptor Kit (Homo sapiens, UniProt P10721); experiment: Inhibition of c-Kit autophosphorylation in intact cells; format: cell-based
[7] = Solubility after injection of water; format: physicochemical; conditions: read-out: Activity
Homo sapiens [8] = species on record: Homo sapiens; experiment: Percent remaining after incubation with human liver microsomes for 10 min; format: functional
[9] = biological target: T2, Hepatocyte growth factor receptor (Homo sapiens, UniProt P08581); experiment: Inhibition of c-Met autophosphorylation of in intact cells; format: cell-based
[10] = biological target: T3, Insulin-like growth factor 1 receptor (Homo sapiens, UniProt P08069); experiment: Inhibition of IGF-receptor 1 autophosphorylation in intact cells at 10 uM (inactive); format: cell-based
T3 sequence (P08069 31-736 limits assumed): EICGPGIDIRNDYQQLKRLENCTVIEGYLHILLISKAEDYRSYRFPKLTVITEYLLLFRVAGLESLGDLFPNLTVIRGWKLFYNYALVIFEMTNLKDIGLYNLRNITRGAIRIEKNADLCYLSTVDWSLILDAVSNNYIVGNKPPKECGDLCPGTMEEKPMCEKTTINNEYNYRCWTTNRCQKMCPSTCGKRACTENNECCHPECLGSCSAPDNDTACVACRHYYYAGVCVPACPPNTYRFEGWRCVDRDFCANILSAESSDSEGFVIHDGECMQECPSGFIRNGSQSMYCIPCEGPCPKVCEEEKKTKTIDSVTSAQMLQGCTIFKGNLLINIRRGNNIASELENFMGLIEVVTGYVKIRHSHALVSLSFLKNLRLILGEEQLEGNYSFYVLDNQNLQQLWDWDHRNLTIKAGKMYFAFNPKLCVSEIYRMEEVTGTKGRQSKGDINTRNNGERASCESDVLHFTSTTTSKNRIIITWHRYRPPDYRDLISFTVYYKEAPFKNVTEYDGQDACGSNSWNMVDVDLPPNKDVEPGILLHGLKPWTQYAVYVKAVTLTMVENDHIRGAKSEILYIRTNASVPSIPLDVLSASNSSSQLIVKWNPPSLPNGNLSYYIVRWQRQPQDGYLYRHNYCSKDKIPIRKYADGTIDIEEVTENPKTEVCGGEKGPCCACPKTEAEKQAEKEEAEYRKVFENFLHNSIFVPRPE
T3 sequence (P08069 741-1367 limits assumed): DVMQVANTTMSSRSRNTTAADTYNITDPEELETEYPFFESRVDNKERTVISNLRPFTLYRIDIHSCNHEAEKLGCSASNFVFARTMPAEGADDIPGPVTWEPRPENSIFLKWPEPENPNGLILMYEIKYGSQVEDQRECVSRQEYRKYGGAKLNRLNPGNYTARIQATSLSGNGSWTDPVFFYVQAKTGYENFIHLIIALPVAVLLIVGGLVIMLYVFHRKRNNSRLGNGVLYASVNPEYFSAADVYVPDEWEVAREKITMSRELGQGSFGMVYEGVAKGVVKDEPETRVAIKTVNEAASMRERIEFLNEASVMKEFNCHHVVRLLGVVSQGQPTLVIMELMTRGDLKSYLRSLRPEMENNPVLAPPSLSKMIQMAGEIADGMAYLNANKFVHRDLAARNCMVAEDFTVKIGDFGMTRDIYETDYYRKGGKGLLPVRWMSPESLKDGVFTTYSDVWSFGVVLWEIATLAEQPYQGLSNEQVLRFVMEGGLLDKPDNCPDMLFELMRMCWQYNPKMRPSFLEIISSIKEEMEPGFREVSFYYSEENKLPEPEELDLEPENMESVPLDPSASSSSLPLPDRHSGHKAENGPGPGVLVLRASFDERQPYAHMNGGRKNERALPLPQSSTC

[11] = biological target: T4, Epidermal growth factor receptor (Homo sapiens, UniProt P00533); experiment: Inhibition of EGF-receptor autophosphorylation in intact cells; format: cell-based
T4 sequence (P00533 whole entry): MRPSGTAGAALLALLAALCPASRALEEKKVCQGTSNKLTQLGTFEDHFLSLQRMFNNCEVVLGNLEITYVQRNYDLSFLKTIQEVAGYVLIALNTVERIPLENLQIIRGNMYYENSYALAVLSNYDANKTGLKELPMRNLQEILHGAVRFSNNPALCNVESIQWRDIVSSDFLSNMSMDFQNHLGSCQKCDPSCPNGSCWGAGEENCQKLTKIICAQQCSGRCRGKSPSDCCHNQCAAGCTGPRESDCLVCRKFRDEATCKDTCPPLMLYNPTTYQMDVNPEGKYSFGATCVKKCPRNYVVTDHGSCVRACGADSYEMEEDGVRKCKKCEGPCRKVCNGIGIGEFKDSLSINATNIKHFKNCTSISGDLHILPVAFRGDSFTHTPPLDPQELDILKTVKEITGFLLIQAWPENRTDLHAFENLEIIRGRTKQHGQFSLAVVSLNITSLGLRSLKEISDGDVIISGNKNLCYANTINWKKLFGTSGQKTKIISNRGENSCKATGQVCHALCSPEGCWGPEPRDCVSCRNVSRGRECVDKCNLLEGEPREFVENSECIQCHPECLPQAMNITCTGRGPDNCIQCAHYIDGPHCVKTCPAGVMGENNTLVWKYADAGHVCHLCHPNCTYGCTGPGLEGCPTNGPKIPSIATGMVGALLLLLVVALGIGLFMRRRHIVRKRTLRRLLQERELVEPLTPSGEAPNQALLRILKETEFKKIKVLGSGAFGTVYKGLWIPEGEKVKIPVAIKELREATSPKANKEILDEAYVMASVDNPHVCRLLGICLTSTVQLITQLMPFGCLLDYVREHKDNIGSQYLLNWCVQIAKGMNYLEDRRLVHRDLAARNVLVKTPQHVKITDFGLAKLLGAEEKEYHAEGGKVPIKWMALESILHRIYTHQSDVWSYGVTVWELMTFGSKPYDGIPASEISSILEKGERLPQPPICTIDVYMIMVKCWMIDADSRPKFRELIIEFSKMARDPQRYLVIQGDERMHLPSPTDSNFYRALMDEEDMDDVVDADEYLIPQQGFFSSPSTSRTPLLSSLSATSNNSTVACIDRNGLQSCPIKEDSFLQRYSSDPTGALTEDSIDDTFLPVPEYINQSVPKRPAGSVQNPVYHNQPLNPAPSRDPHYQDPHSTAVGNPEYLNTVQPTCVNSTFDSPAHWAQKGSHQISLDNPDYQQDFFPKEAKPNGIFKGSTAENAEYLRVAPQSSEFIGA

Homo sapiens [12] = species on record: Homo sapiens; experiment: Percent remaining after incubation with human liver microsomes for 40 min; format: functional
[13] = biological target: T4, Epidermal growth factor receptor; experiment: Inhibition of EGF-receptor autophosphorylation in intact cells at 10 uM (inactive); format: cell-based
[14] = Solubility after at pH 1.2; format: physicochemical; conditions: buffer, read-out: Activity
[15] = biological target: T3, Insulin-like growth factor 1 receptor; experiment: Inhibition of IGF-receptor 1 autophosphorylation in intact cells; format: cell-based
[16] = biological target: T2, Hepatocyte growth factor receptor; experiment: Inhibition of c-Met autophosphorylation in intact cells at 10 uM (inactive); format: cell-based
[17] = biological target: Vascular endothelial growth factor receptor 2 (Homo sapiens, UniProt P35968); experiment: Inhibition of vascular endothelial growth factor receptor 2 autophosphorylation in intact cells; format: cell-based
[18] = biological target: Platelet-derived growth factor receptor (Homo sapiens, UniProt P09619+P16234); experiment: Inhibition of PDGF-receptor autophosphorylation in intact cells; format: cell-based

Row | pIC50 [1] | SMILES | Metabolism (Rattus norvegicus [2]) [%] | also measured
1 | 5.05 | COc1cc2nccc(Oc3ccc(Nc4ccccc4)cc3)c2cc1OC |  | 
2 | 7.20 | COc1cc2nccc(Oc3ccc(Nc4ccc(C(C)(C)C)cc4)c(F)c3)c2cc1OC |  | 
3 | 6.46 | COc1cc2c(Oc3ccc(Nc4ccc(C(C)(C)C)cc4)cc3)ccnc2cc1OCCCN1CCCCC1 | 28 | 
4 | 7.40 | COc1cc2nccc(Oc3ccc(Nc4ccc(C(C)(C)C)cc4)cc3)c2cc1OC |  | solubility [3]: 3 µg/mL (≈ 7 µM); inhibition [4]: 70%
5 | 7.27 | COc1cc2nccc(Oc3ccc(Nc4ccc(C(C)(C)C)cc4)cc3F)c2cc1OC |  | 
6 | 7.00 | COc1cc2nccc(Oc3ccc(Nc4ccc(C(C)(C)C)cc4)c(C)c3)c2cc1OC |  | 
7 | 6.70 | COc1cc2c(Oc3ccc(Nc4ccc(C(C)(C)C)cc4)cc3)ccnc2cc1OCC(O)CN1CCCCC1 (stereo unspecified) | 78 | 
8 | 7.15 | COc1cc2c(Oc3ccc(Nc4ccc(C(C)(C)C)cc4)cc3)ccnc2cc1OCC(O)CN1CCOCC1 (stereo unspecified) | 72 | 
9 | 7.15 | COc1cc2c(Oc3ccc(Nc4ccc(C(C)(C)C)cc4)cc3)ccnc2cc1OCCN(CCO)CCO | 46 | 
10 | 6.70 | COc1cc2c(Oc3ccc(Nc4ccc(C(C)(C)C)cc4)cc3)ccnc2cc1OCCN1CCOCC1 | 9 | 
11 | 6.59 | COc1cc2c(Oc3ccc(Nc4ccc(C(C)(C)C)cc4)c(F)c3)ccnc2cc1OCCNCCO | 92 | 
12 | 7.64 | COc1cc2c(Oc3ccc(Nc4ccc(C(C)(C)C)cc4)cc3)ccnc2cc1OCCN1CCC(CO)CC1 | 51 | 
13 | 6.72 | COc1cc2nccc(Oc3ccc(C(=O)c4ccc(C(C)(C)C)cc4)cc3)c2cc1OC |  | inhibition [4]: 3%
14 | < 5.00 | COc1cc2nccc(Oc3ccc(Nc4cccc(-c5ccccc5)c4)cc3)c2cc1OC |  | 
15 | 6.11 | COc1ccc(Nc2ccc(Oc3ccnc4cc(OC)c(OC)cc34)cc2)cc1 |  | 
16 | 6.89 | COc1cc2nccc(Oc3ccc(Nc4ccc(C(C)(C)C)cc4)c(C)c3C)c2cc1OC |  | 
17 | < 6.00 | COc1cc2nccc(Oc3ccc(Cc4ccc(C(C)(C)C)cc4)cc3)c2cc1OC |  | inhibition [4]: 5%
18 | < 5.00 | COc1cc2nccc(Oc3ccc(Nc4ccc(C(C)(C)C)cc4)cc3C)c2cc1OC |  | 
19 | 7.06 | COc1cc2c(Oc3ccc(Nc4ccc(C(C)(C)C)cc4)cc3)ccnc2cc1OCCNCCO | 97 | Metabolism (Rattus norvegicus [5]): 78%; pIC50 [6]: 6.32; solubility [7]: 108 µg/mL (≈ 215 µM); Metabolism (Homo sapiens [8]): 99%; pIC50 [9]: < 5.00; Activity [10]: inactive; pIC50 [11]: < 5.00; Metabolism (Homo sapiens [12]): 89%; Activity [13]: inactive; solubility [14]: 802 µg/mL (≈ 1600 µM); pIC50 [15]: < 5.00; Activity [16]: inactive; pIC50 [17]: 7.08; pIC50 [18]: 7.00
20 | 6.36 | COc1cc2nccc(Oc3ccc(Oc4ccc(C(C)(C)C)cc4)cc3)c2cc1OC |  | 
21 | 5.47 | COc1cc2nccc(Oc3ccc(NC4CCC(C(C)(C)C)CC4)cc3)c2cc1OC (stereo unspecified) |  | 
22 | 7.15 | COc1cc2c(Oc3ccc(Nc4ccc(C(C)(C)C)cc4)cc3F)ccnc2cc1OCCNCCO | 60 | 
23 | < 5.00 | COc1cc2nccc(Oc3ccc(Nc4ccc(C(C)(C)C)cc4)c(C(F)(F)F)c3)c2cc1OC |  | 
24 | 6.70 | COc1cc2nccc(Oc3ccc(Nc4ccc(C(C)C)cc4)cc3)c2cc1OC |  | 
